Experimental data as given in ChEMBL document CHEMBL1800032, “Allosteric and ATP-competitive kinase inhibitors of mTOR for cancer treatment” (Bioorg Med Chem Lett, 2010).

Molecular target: Serine/threonine-protein kinase mTOR (Homo sapiens, UniProt P42345)
Experiment: Inhibition of recombinant mTOR assessed as inhibition of S6K T389 phosphorylation by DELFIA assay

Compound: COC(=O)Nc1ccc(-c2nc(N3CCOCC3)c3cnn(C4CCN(C(=O)OC)CC4)c3n2)cc1
- IC50: 5 nM
